Results reported in patent US20240391862A1, “(1,4,5-TRISUBSTITUTED-1H-PYRAZOL-3-YL)OXY-2-ALKOXY ALKYL ACIDS AND THEIR DERIVATIVES, THEIR SALTS AND THEIR USE AS HERBICIDAL AGENTS” (Bayer AKtiengesellschaft, priority 2021, published 2024).

How the values were obtained:
[1] = test system: various unwanted plants; test: Pre-emergence effect against various unwanted plants (PE): comparative test of I-01 with compounds from WO2020/245044 (Tables 40a, 40b) and summary statements; format: in vivo
Description: Seeds of monocotyledonous and dicotyledonous weed plants and crop plants are placed in plastic or organic planting pots and covered with soil. The compounds of the invention, formulated in the form of wettable powders (WP) or as emulsion concentrates (EC), are then applied to the surface of the covering soil as aqueous suspension or emulsion with addition of 0.5% additive at a water application rate equivalent to 600 l/ha. After the treatment, the pots are placed in a greenhouse and kept under good growth conditions for the trial plants. After about 3 weeks, the effect of the preparations is scored visually in comparison with untreated controls as percentages. For example, 100% activity=the plants have died, 0% activity=like control plants. Tables 40a and 40b below show the effects of the inventive compound (I-01) with structurally similar compounds (from WO2020/245044) on various harmful plants at an application rate corresponding to 320 g/ha or less, which have been obtained by the trial procedure specified hereinafter. The inventive compound (I-01) differs here by variance of a significant structural feature from the structurally similar compound with regard to the R^2 radical. Seeds of monocotyledonous and dicotyledonous weed plants and crop plants are placed in plastic or organic planting pots and covered with soil. The compounds of the invention, formulated in the form of wettable powders (WP) or as emulsion concentrates (EC), are then applied to the surface of the covering soil as aqueous suspension or emulsion with addition of 0.5% additive at a water application rate equivalent to 600 l/ha. After the treatment, the pots are placed in a greenhouse and kept under good growth conditions for the trial plants. After about 3 weeks, the effect of the preparations is scored visually in comparison with untreated controls as percentages. For example, 100% activity=the plants have died, 0% activity=like control plants. Effects/crop compatibilities of selected compounds (Table 39) on various harmful plants at an application rate corresponding to 80 to 320 g/ha that have been obtained by the trial procedure specified hereinabove are shown in Tables 40a and 40b below.

[2] = test system: DIGSA; test: Post-emergence herbicidal effect, greenhouse pot test; format: in vivo, Digitaria sanguinalis; details: Digitaria sanguinalis, 504 h, visual rating about 3 weeks after treatment, read-out: Post-emergence effect against DIGSA
How it was run: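 Greenhouse pot test: weeds and crops sown in sandy loam, sprayed post-emergence at one-leaf stage (2–3 weeks after sowing) with WP or EC formulations plus 0.5% additive at 600 l/ha water, rates 20–320 g/ha. Visual rating about 3 weeks later versus untreated controls (100% = dead, 0% = as control).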

SMILES | Pre-emergence effect, Effect %, ALOMY ([1]; ALOMY, 320 g/ha, comparative test) [%] | Pre-emergence effect, Effect %, ECHCG ([1]; 80 g/ha, comparative test) [%] | Pre-emergence effect, Effect %, ECHCG ([1]; 320 g/ha, comparative test) [%] | Pre-emergence effect, Effect %, LOLRI ([1]; 80 g/ha, comparative test) [%] | Pre-emergence effect, Effect %, LOLRI ([1]; 320 g/ha, comparative test) [%] | Pre-emergence effect, Effect %, MATIN ([1]; 80 g/ha, comparative test) [%] | Pre-emergence effect, Effect %, MATIN ([1]; 320 g/ha, comparative test) [%] | Pre-emergence effect, Effect %, POLCO ([1]; POLCO, 80 g/ha, comparative test) [%] | Pre-emergence effect, Effect %, SETVI ([1]; SETVI, 320 g/ha, comparative test) [%] | herbicidal efficacy by comparison to the structurally similar compounds (Tables 40a and 40b) ([1]; different harmful plants, 320 g or less per hectare, vs compounds from WO2020/245044) | pest or weed control at 80 g/ha ([2]; 80 g/ha) [%] | pest or weed control at 320 g/ha ([2]; 320 g/ha) [%]
CCOC(=O)C(OCC)Oc1nn(-c2ccccc2F)c(-c2ccc(F)nc2)c1Br (racemic) [Example I-01, Ethyl (2RS)-{[4-bromo-1-(2-fluorophenyl)-5-(6-fluoropyridin-3-yl)-1H-pyrazol-3-yl]oxy}(ethoxy)acetate] | 90 | 70 | 100 | 90 | 100 | 90 | 90 | 80 | 100 | distinctly improved herbicidal efficacy |  | 
COC(=O)C(OC)Oc1nn(-c2ncccc2F)c(-c2ccc(F)nc2)c1Br (stereo not drawn) [Example I-05] |  |  |  |  |  |  |  |  |  |  | 90 | 90
